Our source for the melting point and response vs control in vivo values is patent US9079886B2, “Substituted triazole derivatives as gamma secretase modulators” (Janssen Pharmaceuticals, Inc., priority 2010, dated 2015).

The structures appear in SMILES notation. Where a name gives a salt, the structure may show the parent alone. Read-outs that look alike come from different tables or passages of the source.

The test system of data set [1] is Aβ42 and Aβtotal in the soluble fraction of brain homogenates. As to the kind of experiment: In vivo Aβ42 lowering: brain soluble Aβ42 and Aβtotal by ELISA after a single oral dose. Particulars: Mus musculus, po, 4 h, dose 30 mg/kg oral dosing, 4 h after dosing. Details: species or system mouse. The text has this: To determine whether acute administration of an Aβ42 lowering agent would reduce Aβ42 levels in vivo, non-transgenic rodents, e.g. mice or rats were used. Animals treated with the Aβ42 lowering agent were examined and compared to those untreated or treated with vehicle and brain levels of soluble Aβ42 and total A13 were quantitated by standard techniques, for example, using ELISA. Treatment periods varied from hours (h) to days and were adjusted based on the results of the Aβ42 lowering once a time course of onset of effect could be established.
A typical protocol for measuring Aβ42 lowering in vivo is shown but it is only one of many variations that could be used to optimize the levels of detectable Aβ. For example, Aβ42 lowering compounds were formulated in 20% of Captisol® (a sulfobutyl ether of β-cyclodextrin) in water or 20% hydroxypropyl β cyclodextrin. The Aβ42 lowering agents were administered as a single oral dose or by any acceptable route of administration to overnight fasted animals. After 4 h, the animals were sacrificed and Aβ42 levels were analysed.
Blood was collected by decapitation and exsanguinations in EDTA-treated collection tubes. Blood was centrifuged at 1900 g for 10 minutes (min) at 4° C. and the plasma recovered and flash frozen for later analysis. The brain was removed from the cranium and hindbrain. The cerebellum was removed and the left and right hemisphere were separated. The left hemisphere was stored at −18° C. for quantitative analysis of test compound levels. The right hemisphere was rinsed with phosphate-buffered saline (PBS) buffer and immediately frozen on dry ice and stored at −80° C. until homogenization for biochemical assays.
Mouse brains from non-transgenic animals were resuspended in 8 volumes of 0.4% DEA (diethylamine)/50 mM NaCl containing protease inhibitors (Roche-11873580001 or 04693159001) per gram of tissue, e.g. for 0.158 g brain, add 1.264 ml of 0.4% DEA. All samples were homogenized in the FastPrep-24 system (MP Biomedicals) using lysing matrix D (MPBio #6913-100) at 6 m/s for 20 seconds. Homogenates were centrifuged at 221.300×g for 50 min. The resulting high speed supernatants were then transferred to fresh eppendorf tubes. Nine parts of supernatant were neutralized with 1 part 0.5 M Tris-HCl pH 6.8 and used to quantify Aβtotal and Aβ42.
To quantify the amount of Aβtotal and Aβ42 in the soluble fraction of the brain homogenates, Enzyme-Linked-Immunosorbent-Assays were used. Briefly, the standards (a dilution of synthetic Aβ1-40 and Aβ-42, Bachem) were prepared in 1.5 ml Eppendorf tube in Ultraculture, with final concentrations ranging from 10000 to 0.3 pg/ml. The samples and standards were co-incubated with HRPO-labelled N-terminal antibody for Aβ42 detection and with the biotinylated mid-domain antibody 4G8 for Aβtotal detection. 50 μl of conjugate/sample or conjugate/standards mixtures were then added to the antibody-coated plate (the capture antibodies selectively recognize the C-terminal end of Aβ42, antibody JRF/cAB42/26, for Aβ42 detection and the N-terminus of Aβ, antibody JRF/rAβ/2, for Aβtotal detection). The plate was allowed to incubate overnight at 4° C. in order to allow formation of the antibody-amyloid complex. Following this incubation and subsequent wash steps the ELISA for Aβ42 quantification was finished by addition of Quanta Blu fluorogenic peroxidase substrate according to the manufacturer's instructions (Pierce Corp., Rockford, Il). A reading was performed after 10 to 15 min (excitation 320 nm/emission 420 nm).
For Aβtotal detection, a Streptavidine-Peroxidase-Conjugate was added, followed 60 min later by an addional wash step and addition of Quanta Blu fluorogenic peroxidase substrate according to the manufacturer's instructions (Pierce Corp., Rockford, Il). A reading was performed after 10 to 15 min (excitation 320 nm/emission 420 nm). […]

[2] abbreviates: untreated animals (Ctrl) set at 100, read-out: Aβ42 (% vs Ctrl) _Mean.
Setting [3] is: untreated animals (Ctrl) set at 100, read-out: Aβtotal (% vs Ctrl)_Mean.

In turn, `COc1cc(Nc2nc(OC3CCCC(C(F)(F)F)C3)n(C(C)C)n2)ccc1-c1ccnc(C)c1` (centres unmarked) (as salt: HCl) (hydrate or solvate) [Compound 117] displayed a melting point of 131.5 °C. In turn, `COc1cc(Nc2nc(N3CCCC(C(F)(F)F)C3)n(C(C)C)n2)ccc1-n1cnc(C)n1` (racemic) [Compound 59] gave a melting point of 134 °C. Further, the response vs control in vivo at 30 mg/kg in data set [1] (setting [2]) is 69%. In addition, in data set [1] (setting [3]), the response vs control in vivo at 30 mg/kg turned out to be 94%. `COc1cc(Nc2nc(Cc3cccc(C(F)(F)F)c3)n(CCNC(C)=O)n2)ccc1-n1cnc(C)c1` [Compound 1] registered a melting point of 179 °C. On the same count and under the same terms, then `COc1cc(Nc2nc(N3CCCC(C(F)(F)F)C3)n(C)n2)ccc1-n1cnc(C)c1` (centres unmarked) [Compound 2], with 199.9 °C; and `COc1cc(Nc2nc(Oc3ccccc3Cl)n(C(C)C)n2)ccc1-n1cnc(C)n1` [Compound 4], with 202.7 °C; and `COc1cc(Nc2nc(Oc3cccc(Cl)c3C)n(C(C)C)n2)ccc1-n1cnc(C)n1` [Compound 8], with 157.2 °C. Compound `COc1cc(NC(=O)c2nc(Oc3ccc(F)cc3C)n(C(C)C)n2)ccc1-n1cnc(C)c1` [Compound 9] showed a melting point of 158.4 °C. Same read-out and setting: for `COc1nc(Nc2nc(-c3cccc(C(F)(F)F)c3)n(C(C)C)n2)ccc1-n1cnc(C)c1` [Compound 17] the value was 185.1 °C; for `COc1cc(Nc2nc(N3CCCC(c4ccccc4)C3)n(C(C)C)n2)ccc1-n1cnc(C)c1` (centres unmarked) [Compound 18], 164.2 °C. On to `COc1cc(Nc2nc(Oc3ccccc3Cl)n(C)n2)ccc1-n1cnc(C)c1` [Compound 51], for which the melting point was 210.1 °C. On the same count and under the same terms, then `COc1cccc(C2CCN(c3nc(Nc4ccc(-n5cnc(C)c5)c(OC)c4)nn3C(C)C)C2)c1` (centres unmarked) [Compound 53], with 169.9 °C; and `COc1cc(Nc2nc(N3C[C@@H](C)O[C@@H](C)C3)n(C(C)C)n2)ccc1-n1cnc(C)c1` [Compound 55], with 189.4 °C. On the same count and under the same terms, then `COc1cc(Nc2nc(N3CCc4ccccc4C3)n(C)n2)ccc1-n1cnc(C)c1` [Compound 56], with 170.1 °C. The compound `COc1cc(Nc2nc(N3CCc4ccccc4C3)n(C(C)C)n2)ccc1-n1cnc(C)c1` [Compound 57] returned a melting point of 214.5 °C. For the compound `COc1cc(Nc2nc(N3CCOC(c4cccc(C)c4)C3)n(C(C)C)n2)ccc1-n1cnc(C)c1` (centres unmarked) [Compound 58], the figures for the response vs control in vivo at 30 mg/kg in data set [1] (setting [2]) and in data set [1] (setting [3]) were 88% and 89%, respectively. As to `Cc1cc(-c2ccc(Nc3nc(-c4cccc(C(F)(F)F)c4)n(C)n3)cc2)ccn1` [Compound 60], the melting point was 184.2 °C.

Take `COc1cc(Nc2nc(Oc3ccccc3Cl)n(C)n2)ccc1-c1ccnc(C)c1` [Compound 61]: the melting point is 175 °C. For `COc1cc(Nc2nc(N3CCCC(C(F)(F)F)C3)n(C(C)C)n2)ccc1-c1ccnc(C)c1` (centres unmarked) [Compound 67], the response vs control in vivo at 30 mg/kg in data set [1] (setting [2]) was found to be 60%; in data set [1] (setting [3]), 89%.

For the compound `COc1cc(Nc2nc(Oc3ccccc3Cl)n(C(C)C)n2)ccc1-c1ccnc(C)c1` [Compound 69], the response vs control in vivo at 30 mg/kg in data set [1] (setting [2]) was determined as 63%; in data set [1] (setting [3]), 97%. Compound `Cc1cc(F)ccc1Oc1nc(Nc2ccc(-c3ccncc3)cc2)nn1C(C)C` [Compound 112] returned a melting point of 204.1 to 205.4 °C.

In turn, `Cn1nc(Nc2ccc(-c3ccncc3)cc2)nc1-c1cccc(C(F)(F)F)c1` [Compound 113] registered a melting point of 220.7 °C. As for `COc1cc(Nc2nc(N3CCN(C(=O)OC(C)(C)C)CC3)n(C(C)C)n2)ccc1-c1ccnc(C)c1` [Compound 132], the melting point amounted to 177.1 °C.

For the compound `Cc1cc(-c2ccc(Nc3nc(N4CCOC(C(F)(F)F)C4)n(C(C)C)n3)cc2)ccn1` (centres unmarked) [Compound 133], the results for the response vs control in vivo at 30 mg/kg in data set [1] (setting [2]) and in data set [1] (setting [3]) were 67% and 94%, respectively.

`COc1cc(Nc2nc(-c3cccc(C(F)(F)F)c3)n(C(C)C)n2)ccc1-c1ccnc(C)c1` [Compound 136] gave a melting point of 221.9 °C. On the same count and under the same terms, for `Cc1cc(-c2ccc(Nc3nc(-c4cccc(C(F)(F)F)c4)n(C(C)C)n3)cc2)ccn1` [Compound 137] the value was 210.3 °C. `Cc1cc(-c2ccc(Nc3nc(-c4cccc(C(F)(F)F)c4)n(C(C)C)n3)cc2F)ccn1` [Compound 138] displayed a melting point of 199.6 °C. Regarding `Cc1cc(-c2ccc(Nc3nc(Oc4ccccc4Cl)n(C(C)C)n3)cc2F)ccn1` [Compound 141], the response vs control in vivo at 30 mg/kg in data set [1] (setting [2]) was found to be 78%; in data set [1] (setting [3]) it was 98%. As to `COc1cc(Nc2nc(Oc3ccccc3Cl)n(CC(OC)OC)n2)ccc1-c1ccnc(C)c1` [Compound 147], the melting point stood at 90.1 °C.

`COc1cc(Nc2nc(Oc3ccccc3Cl)n(CCNC(C)C)n2)ccc1-c1ccnc(C)c1` [Compound 149]: the melting point came to 138.6 °C. The same measure, in the same setting: then `Cc1cc(-c2ccc(Nc3nc(Oc4c(C)cccc4Cl)n(C(C)C)n3)cc2)ccn1` [Compound 155], with 222.6 °C; and `Cc1cc(-c2ccc(Nc3nc(Oc4cccc(Cl)c4C)n(C(C)C)n3)cc2)ccn1` [Compound 157], with 159.6 °C; and `COc1cc(Nc2nc(Oc3cccc(Cl)c3)n(C(C)C)n2)ccc1-c1ccnc(C)c1` [Compound 158], with 125.4 °C. `COc1cc(Nc2nc(Oc3c(F)cccc3Cl)n(C(C)C)n2)ccc1-c1ccnc(C)c1` [Compound 160]: the response vs control in vivo at 30 mg/kg in data set [1] (setting [2]) turned out to be 77%; in data set [1] (setting [3]), 83%.

The compound `Cc1cc(-c2ccc(Nc3nc(Oc4cc(F)ccc4Cl)n(C(C)C)n3)cc2)ccn1` [Compound 161] had a melting point of 132.7 °C. Regarding `COc1cc(Nc2nc(Oc3ccc(F)cc3C)n(C(C)C)n2)ccc1-c1ccnc(C)c1` [Compound 163], the melting point came to 172.7 °C. The same measure, in the same setting: then `Cc1cc(-c2ccc(Nc3nc(Oc4ccc(F)cc4C)n(C(C)C)n3)cc2)ccn1` [Compound 164], with 138.9 °C. The same measure, in the same setting: for `COc1cc(Nc2nc(Oc3ccccc3C(F)(F)F)n(C)n2)ccc1-c1ccnc(C)c1` [Compound 166] the value was 159.6 °C; for `COc1cc(Nc2nc(Oc3cc(C(F)(F)F)ccc3F)n(C)n2)ccc1-c1ccnc(C)c1` [Compound 168], 145.1 °C. As for `COc1cc(Nc2nc(Oc3ccc(F)cc3C(F)(F)F)n(C(C)C)n2)ccc1-c1ccnc(C)c1` [Compound 169], the melting point amounted to 134.8 °C. On the same count and under the same terms, then `COc1cc(Nc2nc(Oc3cccc(N4CCOCC4)c3)n(C(C)C)n2)ccc1-c1ccnc(C)c1` [Compound 171], with 169.3 °C; and `COc1cc(Nc2nc(N3CCCN(C(C)=O)CC3)n(C(C)C)n2)ccc1-c1ccnc(C)c1` [Compound 176], with 158.4 °C; and `Cc1cc(F)ccc1Oc1nc(Nc2ccc(-c3ccnc(C(F)(F)F)c3)cc2)nn1C(C)C` [Compound 177], with 165.9 to 166.9 °C. The same measure, in the same setting: for `Cn1nc(Nc2ccc(-c3ccnc(C(F)(F)F)c3)cc2)nc1-c1cccc(C(F)(F)F)c1` [Compound 178] the value was 179.2 °C; for `COc1ccc(-c2ccc(Nc3nc(Oc4ccc(F)cc4C)n(C(C)C)n3)cc2)cn1` [Compound 179], 142.7 to 144.7 °C. On the same count and under the same terms, for `COc1cc(-c2ccc(Nc3nc(Oc4ccc(F)cc4C)n(C(C)C)n3)cc2)ccn1` [Compound 180] the value was 132.8 to 143.6 °C.
